From patent publication US8617879B2, “Apparatus for cell or tissue culture” (Agency for Science, Technology and Research, priority 2009, dated 2013)

System: C3A cells
Assay: APAP-induced hepatotoxicity IC50 measurement with robotic liquid handler
Format: cell-based
Conditions: Homo sapiens
Protocol: Using the human liver cancer cell line C3A, cultured in the bioreactor, IC50 value measurements were conducted with a robotic liquid handler (FIG. 16).

CC(=O)Nc1ccc(O)cc1 [APAP, acetaminophen]
IC50 (C3A cells cultured in Si3N4—SC (static)): 80 mM | IC50 (C3A cells cultured in Si3N4—SCP (Si3N4 sandwich perfusion in 96-well bioreactor)): 71 mM | IC50 (C3A cells cultured in collagen gel sandwich (static)): 84.6 mM
